Values of other authors, collected in US20090215818A1, “THIOZOLIDINEDIONE DERIVATIVES AS PI3 KINASE INHIBITORS” (SmithKline Beecham Corporation, priority 2006, published 2009).
Where two headings read alike, the source gives them in different places.

Key:
[1] = tested on: Class I PI3-kinases; conditions: each of the Class I PI3-kinases
[2] = target: CK2 protein kinase (Homo sapiens, UniProt P68400)
CK2 protein kinase, sequence (P68400 whole entry): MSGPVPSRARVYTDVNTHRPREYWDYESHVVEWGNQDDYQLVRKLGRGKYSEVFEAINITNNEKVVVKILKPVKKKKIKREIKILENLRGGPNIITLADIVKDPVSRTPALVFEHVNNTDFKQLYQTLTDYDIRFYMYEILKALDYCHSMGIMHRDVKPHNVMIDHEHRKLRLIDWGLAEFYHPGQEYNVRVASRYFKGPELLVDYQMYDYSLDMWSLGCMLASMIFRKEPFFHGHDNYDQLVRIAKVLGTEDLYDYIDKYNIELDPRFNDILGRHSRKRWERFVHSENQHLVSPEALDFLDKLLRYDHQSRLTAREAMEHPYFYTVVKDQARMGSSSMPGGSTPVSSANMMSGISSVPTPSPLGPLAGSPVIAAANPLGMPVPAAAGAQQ

Compound	IC50 ([1]; Fruman et al. 1998, read-out: IC50 against each of these PI3-kinases) [µM]	IC50 [2] [µM]	IC50 ([1]; read-out: IC50 against each of the various Class I PI3-kinases) [µM]
O=c1cc(N2CCOCC2)oc2c(-c3ccccc3)cccc12 [LY294002]	15 to 20	5 to 10	–
wortmannin	–	–	0.001 to 0.01
